Data published in US20230117252A1, “CELL SHEET HAVING FIBROSIS INHIBITORY ACTION” (NATIONAL UNIVERSITY CORPORATION TOTTORI UNIVERSITY, priority 2017, published 2023).

How the values were obtained:
[1] = tested on: MMP-1; experiment: MMP-1 activity of trypsin-treated cell suspension and cell sheet at different seeding densities (Example 1); assay type: cell-based; details: for MMP1 average: UE7T-13 cells
Protocol: (§1) In the present disclosure, the MMP activity can be determined by measuring the enzyme activity using a fluorescence resonance energy transfer (FRET) peptide that generates fluorescence upon cleavage by MMP.
(§2) After four days, the temperature-responsive culture dishes were moved into a 32° C., 5% CO2 incubator, and sheets were made. The cell sheets obtained were washed three times with PBS, then homogenized in the buffer of an MMP activity measurement kit (SensoLyte® 520 MMP-1 Assay Kit Fluorimetric, (ANASPEC Co.: Cat #: AS-71150) and SensoLyte® 520 MMP-14 Assay Kit Fluorimetric (ANASPEC Co.: Cat #AS72025)). The cells seeded in the ordinary cell culture dishes were dispersed in 0.025% trypsin/0.1 mM EDTA, recovered by centrifugation, then washed three times with PBS and homogenized in the buffer for the MMP activity measurement. The results in FIG. 1 show the results on MMP-1 (FIG. 1A) and MMP-14 (FIG. 1B) per cell. […] It was a surprising result that the MMP-1 activity per cell was increased by increasing the seeding density.

[2] = tested on: MMP-14; experiment: MMP-14 activity of trypsin-treated cell suspension and cell sheet at different seeding densities (Example 1); assay type: cell-based; details: for MMP14 average: UE7T-13 cells
Text: as §1
as §2, with “Bone marrow-derived mesenchymal stem cells (UE7T-13 cell line) were suspended in DMED/10% FBS and seeded to make respective seeded cell densities of 3.6×10^4 cells/cm^2, 5.4×10^4 cells/cm^2, and 7.2×10^4 cells/cm^2 in temperature-responsive culture dishes and ordinary cell culture dishes. After” for “After”

[3] = seeding density 1.8 × 10^4 cells/cm^2, per cell
[4] = seeding density 3.6 × 10^4 cells/cm^2, per cell
[5] = seeding density 5.4 × 10^4 cells/cm^2, per cell
[6] = seeding density 7.2 × 10^4 cells/cm^2, per cell

With Trypsin the “increase of MMP activity when the seeding density was increased four-fold” value ([1]; Example 1, MMP-1 and MMP-14 together) was “about four-fold”, the “increase of MMP-1 activity when the seeding density was increased four-fold” value ([1]; FIG. 1A) was “about four-fold” and the MMP1 average [1, 3] was 103548.8. For the same substance, the MMP1 average [1, 4] was 242642.7, the MMP1 average [1, 5] was 326635.6 and the MMP1 average [1, 6] was 462976. For the same substance, the “increase of MMP-14 activity when the seeding density was increased four-fold” value ([2]; FIG. 1B) was “about four-fold”, the MMP14 average [2, 3] was 156184.1 and the MMP14 average [2, 4] was 353634.5. It also gave an MMP14 average [2, 5] of 427591.6 and an MMP14 average [2, 6] of 576164.
